IC50 and Ki data for 25 molecules are collected here from patent US9732094B2, “Arylquinazolines” (Merck Patent GmbH, priority 2013, dated 2017).

The target of data set [1] is DNA-PK phosphorylation at serine 2056 (Homo sapiens (Human), UniProt P78527). The data set is described as follows: DNA-PK phosphorylation at serine 2056 (cellular), bleomycin-treated HCT116 cells, ELISA. It counts as cell-based. The conditions noted are these: read-out: IC50 pDNA-PK. In short, it runs like this: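 HCT116 cells were treated with 10 μM bleomycin plus test compounds for six hours at 37 °C. Phospho-Ser2056 DNA-PK measured by chemiluminescent ELISA, normalised to total DNA-PKcs signal; DMSO control as blank.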

The target of data set [2] is Kv11.1 (hERG) (Homo sapiens (Human), UniProt Q12809). Description: Kv11.1 (hERG) ion channel activity (patch clamp assay), HEK293 cells transfected with hERG gene.
Data set [3] addresses DNA-PK (Homo sapiens (Human), UniProt P78527). Description: DNA-PK assay (biochemical), flashplate 33P-ATP kinase assay. In short, it runs like this:
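Reactions ran in streptavidin-coated flashplates and were halted by 200 mM EDTA, with a further 30 min at room temperature before saline washing.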

Where [4] appears, read: cellular DNA-PK phosphorylation at serine 2056, HCT116.
Setting [5] is: Ki [Kv1.11 hERG], hERG patch clamp assay (cells without asterisk).
Setting [6] is: read-out: Ki [Kv1.11 hERG], hERG patch clamp assay (cells without asterisk).
The mark [7] stands for this setting: cellular, HCT116 cells, 10 μM bleomycin, six hours.
The mark [8] stands for this setting: read-out: Ki [Kv1.11 hERG], patch clamp, HEK293 transfected with hERG gene.

pIC50, pKi: −log10 of the molar value. Read-outs that look alike come from different tables or passages of the source. A value given as a limit tells only on which side of the number the result lay.

Kv11.1 (hERG), sequence (Q12809 whole entry): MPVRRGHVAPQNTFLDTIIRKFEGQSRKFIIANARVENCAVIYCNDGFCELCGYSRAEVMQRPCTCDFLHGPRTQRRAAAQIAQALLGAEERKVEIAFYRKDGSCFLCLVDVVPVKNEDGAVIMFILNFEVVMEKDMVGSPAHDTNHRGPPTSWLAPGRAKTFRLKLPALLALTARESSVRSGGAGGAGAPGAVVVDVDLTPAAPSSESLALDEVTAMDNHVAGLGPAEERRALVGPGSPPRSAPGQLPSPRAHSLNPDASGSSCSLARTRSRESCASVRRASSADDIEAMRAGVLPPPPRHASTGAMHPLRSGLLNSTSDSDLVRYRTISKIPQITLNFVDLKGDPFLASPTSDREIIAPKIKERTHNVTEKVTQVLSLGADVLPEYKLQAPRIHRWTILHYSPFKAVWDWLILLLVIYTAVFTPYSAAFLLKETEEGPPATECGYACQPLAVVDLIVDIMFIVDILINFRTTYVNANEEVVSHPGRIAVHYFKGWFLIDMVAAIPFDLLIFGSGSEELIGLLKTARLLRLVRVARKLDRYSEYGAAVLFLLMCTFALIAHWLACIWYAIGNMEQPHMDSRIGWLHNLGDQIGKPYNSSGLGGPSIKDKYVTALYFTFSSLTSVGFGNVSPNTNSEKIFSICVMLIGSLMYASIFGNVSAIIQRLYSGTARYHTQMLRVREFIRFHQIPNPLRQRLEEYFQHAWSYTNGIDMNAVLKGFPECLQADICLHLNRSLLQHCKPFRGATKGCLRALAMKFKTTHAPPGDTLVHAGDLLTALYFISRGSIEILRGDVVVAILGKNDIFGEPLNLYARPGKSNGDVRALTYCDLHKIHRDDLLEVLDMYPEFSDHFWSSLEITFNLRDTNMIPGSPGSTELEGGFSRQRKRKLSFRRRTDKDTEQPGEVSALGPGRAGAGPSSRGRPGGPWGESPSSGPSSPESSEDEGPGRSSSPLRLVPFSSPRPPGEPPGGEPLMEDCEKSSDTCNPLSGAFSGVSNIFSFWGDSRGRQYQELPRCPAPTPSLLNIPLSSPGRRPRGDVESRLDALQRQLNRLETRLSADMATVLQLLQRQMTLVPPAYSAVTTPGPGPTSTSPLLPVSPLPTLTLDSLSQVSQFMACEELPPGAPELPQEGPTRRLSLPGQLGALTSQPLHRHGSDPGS

Consider `COc1cnc(C(O)c2ccc(F)c(-c3ncnc4cc(N5CCOCC5)ccc34)c2)c(Br)c1` (stereo not drawn) [Example 473, (3-bromo-5-methoxy-pyridin-2-yl)-[4-fluoro-3-(7-morpholin-4-yl-quinazolin-4-yl)-phenyl]methanol], for which the results for the pIC50 in data set [1] (setting [4]) and in data set [3] (biochemical DNA-PK assay) were greater than 6.30 and 8.15 to 8.52, respectively. The molecule also gave a pKi in data set [2] (setting [5]) of 4.60 to 4.82.
Turning to `OC(c1ccc(F)c(-c2ncnc3cc(N4CCOCC4)ccc23)c1)c1ncnc2occc12` (stereo not drawn) [Example 434, [4-Fluoro-3-(7-morpholin-4-yl-quinazolin-4-yl)-phenyl]furo[2,3-d}-pyrimidin-4-yl-methanol], the pIC50 in data set [1] (setting [4]) was greater than 6.30; in data set [3] (biochemical DNA-PK assay), greater than 8.52. Further, the pKi in data set [2] (setting [6]) was less than 4.60.
As to `C#Cc1nc(-c2cc(C(O)c3nccs3)ccc2F)c2ccc(N3CCOCC3)cc2n1` (stereo not drawn) [Example 215, [3-(2-Ethynyl-7-morpholin-4-yl-quinazolin-4-yl)-4-fluorophenyl]-thiazol-2-yl-methanol], the pIC50 in data set [1] (setting [7]) was 5.00 to 5.30; in data set [3] (enzymatic, 5 μM ATP), greater than 8.52. For the same molecule, the negative logarithm of the Ki (pKi) in data set [2] (setting [8]) is greater than 5.00.
The corresponding values for `COc1cnc(C(O)c2ccc(F)c(-c3ncnc4cc(N5CCOCC5)ccc34)c2)nc1` (stereo not drawn) [Example 66, [4-Fluoro-3-(7-morpholin-4-yl-quinazolin-4-yl)phenyl]-(5-methoxypyrimidin-2-yl)methanol] are 4.52 to 5.00, 7.52 to 8.15 and less than 4.60.
For `COC(c1ccc(F)c(-c2ncnc3cc(N4CCOCC4)ccc23)c1)c1nccs1` (stereo not drawn) [Example 177, 4-[2-Fluoro-5-(-methoxythiazol-2-ylmethyl)phenyl]-7-morpholin-4-yl-quinazoline], the pIC50 in data set [1] (Table 5, HCT116 cells) was 4.52 to 5.00; in data set [3] (Table 5), 8.15 to 8.52. The pKi in data set [2] (read-out: Ki [Kv1.11 hERG], Table 5) was less than 4.60.
In the case of `CSc1ccc(C(O)c2cc(-c3ncnc4cc(N5CCOCC5)ccc34)c(F)cc2Cl)nn1` (stereo not drawn) [Example 108, [2-Chloro-4-fluoro-5-(7-morpholin-4-yl-quinazolin-4-yl)-phenyl]-(6-methyl-sulfanylpyridazin-3-yl)methanol], the pIC50 in data set [1] (setting [7]) is greater than 6.30; in data set [3] (enzymatic, 5 μM ATP), 8.15 to 8.52. In data set [2] (Ki [Kv1.11 hERG], patch clamp, HEK293 transfected with hERG gene), this molecule gave a negative-log Ki (pKi) of 4.60 to 4.82.
For the molecule `Cn1nc(C(O)c2ccc(F)c(-c3ncnc4cc(N5CCOCC5)ccc34)c2F)ccc1=O` (stereo not drawn) [Example 220, 6-{[2,4-Difluoro-3-(7-morpholin-4-yl-quinazolin-4-yl)-phenyl]hydroxy-methyl}-2-methyl-2H-pyridazin-3-one], the negative logarithm of the IC50 (pIC50) in data set [1] (Table 7, HCT116 cells) was 5.00 to 5.30; in data set [3] (Table 7), less than 7.52. The pKi in data set [2] (read-out: Ki [Kv1.11 hERG], Table 7) is less than 4.60.
With `C#Cc1nc(-c2cc(C(O)c3nccs3)ccc2F)c2ccc(N3CCOCC3)cc2n1` (stereo not drawn) [Example 208, [3-(2-Ethynyl-7-morpholinylquinazolin-4-yl)-4-fluorophenyl]thiazol-2-ylmethanol], the pIC50 in data set [1] (setting [7]) is 5.30 to 6.30; in data set [3] (enzymatic, 5 μM ATP), 8.15 to 8.52. In data set [2] (setting [8]), the pKi is greater than 5.00.
Consider `Cc1cc(C(O)c2ccc(F)c(-c3ncnc4cc(N5CCOCC5)ccc34)c2)n(C)c(=O)c1` (stereo not drawn) [Example 340, 6-{[4-Fluoro-3-(7-morpholin-4-yl-quinazolin-4-yl)-phenyl]hydroxy-methyl}-1,4-dimethyl-1H-pyridin-2-one], for which the figures for the pIC50 in data set [1] (setting [4]) and in data set [3] (biochemical DNA-PK assay) were 5.30 to 6.30 and greater than 8.52, respectively. The negative-log Ki (pKi) in data set [2] (setting [6]) was less than 4.60.
For `COc1ccc(C(OC)c2ccc(F)c(-c3ncnc4cc(N5CCOCC5)ccc34)c2)nn1` (stereo not drawn) [Example 73, 4-{2-Fluoro-5-[methoxy-(6-methoxy-pyridazin-3-yl)methyl]phenyl}-7-morpholin-4-yl-quinazoline], the pIC50 in data set [1] (setting [7]) is 5.30 to 6.30; in data set [3] (enzymatic, 5 μM ATP) it was 8.15 to 8.52. Also, in data set [2] (setting [8]), the negative logarithm of the Ki (pKi) is less than 4.60.
In the case of `COc1nccnc1C(C(N)=O)c1cc(-c2ncnc3cc(N4CCOCC4)ccc23)c(F)cc1F` (stereo not drawn) [Example 319, 2-[2,4-Difluoro-5-(7-morpholin-4-ylquinazolin-4-yl)phenyl]-2-(3-methoxypyrazin-2-yl)acetamide], the values for the pIC50 in data set [1] (setting [4]) and in data set [3] (biochemical DNA-PK assay) were 5.00 to 5.30 and 7.52 to 8.15, respectively. The pKi in data set [2] (setting [6]) is less than 4.60.
The corresponding values for `OC(c1cc(-c2ncnc3cc(N4CCOCC4)ccc23)ccc1F)c1nccn2ccnc12` (stereo not drawn) [Example 372, [2-Fluoro-5-(7-morpholin-4-yl-quinazolin-4-yl)-phenyl]imidazo-[1,2-a]pyrazin-8-yl-methanol] are 5.30 to 6.30, 7.52 to 8.15 and less than 4.60.
`OC(c1ccc(F)c(-c2ncnc3cc(N4CCOCC4)ccc23)c1)c1nncc2sccc12` (stereo not drawn) [Example 333, [4-Fluoro-3-(7-morpholin-4-yl-quinazolin-4-yl)-phenyl]thieno[2,3-d}-pyridazin-4-yl-methanol]: the pIC50 in data set [1] (setting [4]) is greater than 6.30; in data set [3] (biochemical DNA-PK assay), greater than 8.52. For the same molecule, the negative-log Ki (pKi) in data set [2] (setting [5]) is 4.60 to 4.82.
For the molecule `COc1ccc(C(O)c2cc(-c3ncnc4cc(N5CCOCC5)ccc34)c(F)cc2F)cn1` (stereo not drawn) [Example 221, [2,4-Difluoro-5-(7-morpholin-4-yl-quinazolin-4-yl)-phenyl]-(6-methoxy-pyridin-3-yl)methanol], the pIC50 in data set [1] (Table 7, HCT116 cells) was 5.30 to 6.30; in data set [3] (Table 7) it was 8.15 to 8.52. This molecule also gave a pKi in data set [2] (Ki [Kv1.11 hERG], Table 7) of 4.60 to 4.82.
As for `COc1nccnc1C(O)c1cc(-c2ncnc3cc(N4CCOCC4)ccc23)c(F)cc1Cl` (stereo not drawn) [Example 468, [2-Chloro-4-fluoro-5-(7-morpholin-4-yl-quinazolin-4-yl)-phenyl]-(3-methoxy-pyrazin-2-yl)-methanol], the negative logarithm of the IC50 (pIC50) in data set [1] (setting [4]) is greater than 6.30; in data set [3] (biochemical DNA-PK assay) it was greater than 8.52. In data set [2] (setting [5]), the negative-log Ki (pKi) is 4.60 to 4.82.
Take `COc1cncnc1C(O)c1cc(-c2ncnc3cc(N4CCOCC4)ccc23)ccc1Cl` (stereo not drawn) [Example 409, [2-Chloro-5-(7-morpholin-4-yl-quinazolin-4-yl)-phenyl]-(5-methoxy-pyrimidin-4-yl)-methanol]: the pIC50 was 5.30 to 6.30 in data set [1] (setting [4]) and 8.15 to 8.52 in data set [3] (biochemical DNA-PK assay). In addition, the pKi in data set [2] (setting [6]) is less than 4.60.
Turning to `NC(=O)C(c1cc(-c2ncnc3cc(N4CCOCC4)ccc23)c(F)cc1Cl)c1ncccc1Cl` (stereo not drawn) [Example 289, 2-[2-Chloro-4-fIuoro-5-(7-morpholin-4-yl-quinazolin-4-yl)-phenyl]-2-(3-chloro-pyridin-2-yl)-acetamide], the results for the negative logarithm of the IC50 (pIC50) in data set [1] (setting [4]) and in data set [3] (biochemical DNA-PK assay) were 5.30 to 6.30 and greater than 8.52, respectively. This molecule also had a pKi in data set [2] (setting [5]) of 4.60 to 4.82.
As to `Cc1nccnc1C(C(N)=O)c1cc(-c2ncnc3cc(N4CCOCC4)ccc23)ccc1Cl` (stereo not drawn) [Example 303, 2-[2-Chloro-5-(7-morpholin-4-yl-quinazolin-4-yl)-phenyl]-2-(3-methyl-pyrazin-2-yl)-acetamide], the pIC50 in data set [1] (setting [4]) was 5.00 to 5.30; in data set [3] (biochemical DNA-PK assay) it was 7.52 to 8.15. The pKi in data set [2] (setting [5]) was 4.60 to 4.82.
Turning to `NC(=O)C(c1cccnc1)c1cc(-c2ncnc3cc(N4CCOCC4)ccc23)c(F)cc1Cl` (stereo not drawn) [Example 293, 2-[2-Chloro-4-fiuoro-5-(7-morpholin-4-yl-quinazolin-4-yl)-phenyl]-2-pyridin-3-ylacetamide], the pIC50 is 5.00 to 5.30 in data set [1] (setting [4]) and 8.15 to 8.52 in data set [3] (biochemical DNA-PK assay). Further, in data set [2] (setting [6]), the pKi is less than 4.60.
For the molecule `Cn1nc(C(O)c2cc(-c3ncnc4cc(N5CCOCC5)ccc34)c(F)cc2F)ccc1=O` (stereo not drawn) [Example 219, 6-{[2,4-Difluoro-5-(7-morpholin-4-yl-quinazolin-4-yl)-phenyl]hydroxy-methyl}-2-methyl-2H-pyridazin-3-one], the pIC50 in data set [1] (Table 7, HCT116 cells) was 5.30 to 6.30; in data set [3] (Table 7), 8.15 to 8.52. Moreover, the negative logarithm of the Ki (pKi) in data set [2] (Ki [Kv1.11 hERG], Table 7) is 4.60 to 4.82.
For `OC(c1ccc(F)c(-c2ncnc3cc(N4CCOCC4)ccc23)c1)c1nnc2ccccn12` (stereo not drawn) [Example 344, [4-Fluoro-3-(7-morpholin-4-yl-quinazolin-4-yl)-phenyl]-[1,2,4]-triazolo[4,3-a]pyridin-3-ylmethanol], the pIC50 was 5.00 to 5.30 in data set [1] (setting [4]) and greater than 8.52 in data set [3] (biochemical DNA-PK assay). In data set [2] (setting [6]), the pKi is less than 4.60.
Turning to `O=c1ccc(C(O)c2cc(-c3ncnc4cc(N5CCOCC5)ccc34)c(F)cc2Cl)nn1C1CC1` (stereo not drawn) [Example 95, 6-{[2-Chloro-4-fluoro-5-(7-morpholin-4-yl-quinazolin-4-yl)phenyl]-hydroxymethyl}-2-cyclopropyl-2H-pyridazin-3-one], the negative logarithm of the IC50 (pIC50) in data set [1] (setting [7]) was 5.30 to 6.30; in data set [3] (enzymatic, 5 μM ATP) it was 7.52 to 8.15. The pKi in data set [2] (setting [8]) was less than 4.60.
The corresponding values for `OC(c1ccc(F)c(-c2ncnc3cc(N4CCOCC4)ccc23)c1)c1nccnc1N1CCCC1` (stereo not drawn) [Example 14, [4-Fluoro-3-(7-morpholin-4-yl-quinazolin-4-yl)phenyl]-(3-pyrrolidin-1-yl-pyrazin-2-yl)methanol] are 5.30 to 6.30, 8.15 to 8.52 and less than 4.60.
On to `OC(c1cc(-c2ncnc3cc(N4CCOCC4)ccc23)c(F)cc1F)c1cccc2nncn12` (stereo not drawn) [Example 350, [2,4-Difluoro-5-(7-morpholin-4-yl-quinazolin-4-yl)-phenyl]-[1,2,4]-triazolo[4,3-a]pyridin-5-ylmethanol], for which the pIC50 is 5.00 to 5.30 in data set [1] (setting [4]) and 8.15 to 8.52 in data set [3] (biochemical DNA-PK assay). Besides, the pKi in data set [2] (setting [6]) is less than 4.60.
For the molecule `Cc1nccnc1C(O)c1ccc(F)c(-c2ncnc3cc(N4CCOCC4)cnc23)c1` (stereo not drawn) [Example 237, [4-Fluoro-3-(7-morpholin-4-ylpyrido[3,2-d]pyrimidin-4-yl)phenyl]-(3-methylpyrazin-2-yl)methanol], the pIC50 in data set [1] (setting [4]) is greater than 6.30; in data set [3] (biochemical DNA-PK assay), greater than 8.52. In addition, the pKi in data set [2] (setting [5]) is 4.82 to 5.00.
